# Assays:
# human full length PDE3B = human full length PDE3B (Homo sapiens (Human), UniProt Q13370); test: Assay 5 PDE3B enzyme inhibition (3H-cAMP SPA); assay type: biochemical; details: Sf9 cell extract
# In short: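 Hydrolysis of tritiated cAMP by Sf9-expressed full-length human PDE3B proceeded 60 min at room temperature in Tris buffer pH 7.5 containing Mg2+, EDTA and BSA, with enzyme dilution keeping substrate consumption below 70%. IC50 derived from percent activity versus log compound concentration.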
# [1] = Assay 7 in vivo pharmacokinetics in non-rodents (dogs); parameters: species or system Beagle dogs; details: i.v.
# Protocol: Assay 7 In Vivo Pharmacokinetics in Non-Rodents (e.g. Dogs)
# For in vivo pharmacokinetic experiments test compounds were administered to non-rodents (e.g. female Beagle dogs) intravenously (i.v.) at doses of 0.1 to 1 mg/kg and intragastrally (i.g.) at doses of 0.3 to 3 mg/kg formulated as solutions using solubilizers such as e.g. PEG400 in well-tolerated amounts and are usually given as short term infusion (15 min).
# Blood samples were taken e.g. at 2 min, 8 min, 15 min, 30 min, 45 min, 1 h, 2 h, 4 h, 6 h, 8 h and 24 h after dosing from the vena saphena.
# For pharmacokinetics after intragastral administration test compounds were given intragastrally to fasted non-rodents (e.g. dogs). Blood samples were taken e.g. at 5 min, 15 min, 30 min, 45 min, 1 h, 2 h, 4 h, 6 h, 8 h and 24 h after dosing. […] Blood was collected into Lithium-Heparin tubes (Monovetten@, Sarstedt) and centrifuged for 15 min at 3000 rpm. A small aliquot (e.g. 100 μL) from the supernatant (plasma) was taken and precipitated by addition of an aliquot ice cold acetonitrile (e.g. of 400 μL) and frozen at −20° C. over night. Samples were subsequently thawed and centrifuged at 3000 rpm, 4° C. for 20 minutes. Aliquots of the supernatants were taken for analytical testing using an Agilent HPLC-system with LCMS/MS detection. PK parameters were calculated by non-compartmental analysis using a PK calculation software.
# PK parameters derived from concentration-time profiles after i.v.: CLplasma: Total plasma clearance of test compound (in L/kg/h); CLblood: Total blood clearance of test compound: CLplasma*Cp/Cb (abbreviation: CLp;) in L/kg/h) with Cp/Cb being the ratio of concentrations in plasma and blood.
# PK parameters calculated from concentration time profiles after […].: Cmax: Maximal plasma concentration (in mg/L); Cmaxnorm: Cmax divided by the administered dose (in kg/L); Tmax: Time point at which Cmax was observed (in h). Parameters calculated from both, i.v. and i.g. concentration-time profiles: AUCnorm: Area under the concentration-time curve from t=0 h to infinity (extrapolated) divided by the administered dose (in kg*h/L); AUC(0-tlast)norm: Area under the concentration-time curve from t=0 h to the last time point for which plasma concentrations could be measured divided by the administered dose (in kg*h/L); t1/2: terminal half-life (in h); F: oral bioavailability: AUCnorm after intragastral administration divided by AUCnorm after intravenous administration (in %).
# A-2058 cells = test: Assay 1 cell proliferation measurement, A-2058; assay type: cell-based; details: Homo sapiens, A2058; Melanoma; read-out: Anti-proliferation IC50 [nM] A-2058
# SKMEL3 cells = test: Assay 2 cell proliferation measurement, SKMEL3; assay type: cell-based; details: Homo sapiens, SK-MEL3, Melanoma, read-out: Anti-proliferation IC50 [nM] SKMEL3
# Protocol: (§1) Cell Proliferation Measurement
# (§2) The antiproliferative activity of the compounds of the general formula (I) was examined in vitro in human cancer cells. For this purpose, 500 cells, including HeLa cells, A2058 cells, DU145 cells, HMCB cells, IGR37 cells, NCIH1734 cells, OSRC2 cells, or 750 cells, including CAL51 cells, COL0741 cells, DBTRG05MG cells, DKMG cells, G292CLONEA141B1 cells, GB1 cells, HEL cells, HEL9217 cells, JHUEM1 cells, L3.3 cells, LI7 cells, TE4 cells, or 1000 cells, including 8505C cells, HUT78 cells, NCIH1563 cells, NCIH2122 cells, NCIH2172 cells, RVH421 cells, SKMEL3 cells, or 1500 cells, including C32 cells, HS578T cells, JHOM1 cells, NCIH196 cells, OVKATE cells, were plated in 384-well plates with appropriate growth medium and incubated at 37° C. overnight. After 24 h, the cells on the test plate were treated with the compounds of the general formula (I) as and incubated at 37° C. for 72 h. The compounds were added to the cells by means of an HP D300 digital dispenser in a 10 (or more)-step dilution series. As control, the cells were treated with vehicle (DMSO at 0.3% final concentration). After 72 h, the cells were treated with 20 μl/well of 50% CTG solution in PBS (Promega Cell Titer Glo (catalogue #G755B and G756B)) and incubated at room temperature for 10 min, and luminescence was measured by means of a VICTOR V (Perkin Elmer), in order to determine cell viability at the end of treatment. The percentage effect on cell growth and the IC50 derived therefrom were determined for each test substance using the values from untreated wells (=percent viability). The IC50 values were calculated using a 4-parameter fit.
# DKMG cells = test: Assay 2 cell proliferation measurement, DKMG; assay type: cell-based; details: Homo sapiens, Glioma_astrocytoma, read-out: Anti-proliferation IC50 [nM] DKMG
# Protocol: as §1, §2
# Hs 578T cells = test: Assay 1 cell proliferation measurement, Hs 578T; assay type: cell-based; details: Homo sapiens, Breast, read-out: Anti-proliferation IC50 [nM] Hs 578T
# Chain of human full length PDE3B (Q13370 whole entry): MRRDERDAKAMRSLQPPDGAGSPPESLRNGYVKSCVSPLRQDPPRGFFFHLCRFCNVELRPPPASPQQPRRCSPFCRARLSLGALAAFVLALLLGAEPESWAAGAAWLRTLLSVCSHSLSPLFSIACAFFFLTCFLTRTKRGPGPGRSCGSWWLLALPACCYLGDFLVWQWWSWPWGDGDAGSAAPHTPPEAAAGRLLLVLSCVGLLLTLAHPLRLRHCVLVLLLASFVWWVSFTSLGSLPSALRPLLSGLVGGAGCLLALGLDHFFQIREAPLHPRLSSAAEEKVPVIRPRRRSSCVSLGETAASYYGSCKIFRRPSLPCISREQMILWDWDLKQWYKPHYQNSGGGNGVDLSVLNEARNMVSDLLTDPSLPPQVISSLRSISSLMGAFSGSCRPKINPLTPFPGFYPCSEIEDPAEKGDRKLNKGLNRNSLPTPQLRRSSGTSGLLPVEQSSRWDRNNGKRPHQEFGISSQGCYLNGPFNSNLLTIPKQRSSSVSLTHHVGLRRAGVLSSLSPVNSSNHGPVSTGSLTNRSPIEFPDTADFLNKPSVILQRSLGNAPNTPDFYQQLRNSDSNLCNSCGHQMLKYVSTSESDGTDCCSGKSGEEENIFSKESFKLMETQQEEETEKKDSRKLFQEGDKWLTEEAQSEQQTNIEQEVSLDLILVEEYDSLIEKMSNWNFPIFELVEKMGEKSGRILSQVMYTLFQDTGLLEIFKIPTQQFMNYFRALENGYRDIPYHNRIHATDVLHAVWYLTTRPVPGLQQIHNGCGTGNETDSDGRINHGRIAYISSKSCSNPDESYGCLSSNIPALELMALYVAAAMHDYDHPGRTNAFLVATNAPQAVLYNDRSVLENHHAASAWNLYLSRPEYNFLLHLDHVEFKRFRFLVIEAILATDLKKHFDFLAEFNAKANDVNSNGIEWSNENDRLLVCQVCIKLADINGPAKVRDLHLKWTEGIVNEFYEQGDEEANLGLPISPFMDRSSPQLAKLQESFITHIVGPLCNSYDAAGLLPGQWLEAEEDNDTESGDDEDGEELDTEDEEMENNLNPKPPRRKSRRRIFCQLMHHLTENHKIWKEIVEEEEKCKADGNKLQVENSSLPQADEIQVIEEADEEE
IC50 (human full length PDE3B),CLblood dog [1],IC50 (SKMEL3 cells),Structure (SMILES),IC50 (A-2058 cells),IC50 (DKMG cells),IC50 (Hs 578T cells)
50 nM,8.17 mL/min/kg,5 nM,"C[C@@H]1OC(=O)NN=C1c1ccc(-c2ccc(F)cc2)c(C(F)(F)F)c1 [Example 135, (6S)-5-[4′-Fluoro-2-(trifluoromethyl)biphenyl-4-yl]-6-methyl-3,6-dihydro-2H-1,3,4-oxadiazin-2-one]",24 nM,22 nM,
603 nM,8.17 mL/min/kg,,"O=C1NN=C(c2ccc(-c3ccc(Cl)cc3)c(C(F)(F)F)c2)CO1 [Example 31, 5-[4′-Chloro-2-(trifluoromethyl)biphenyl-4-yl]-3,6-dihydro-2H-1,3,4-oxadiazin-2-one]",51 nM,,> 100 nM
,,10 nM,"C[C@@H]1OC(=O)NN=C1c1ccc(-n2ccc(C(F)(F)F)n2)c(C(F)(F)F)c1 [Example 265, (6S)-6-Methyl-5-{3-(trifluoromethyl)-4-[3-(trifluoromethyl)-1H-pyrazol-1-yl]phenyl}-3,6-dihydro-2H-1,3,4-oxadiazin-2-one]",,59 nM,
80 nM,47.3 mL/min/kg,3 nM,"O=C1NN=C(c2ccc(-c3cnn(C(F)F)c3)c(C(F)(F)F)c2)CO1 [Example 146, 5-{4-[1-(Difluoromethyl)-1H-pyrazol-4-yl]-3-(trifluoromethyl)phenyl}-3,6-dihydro-2H-1,3,4-oxadiazin-2-one]",16 nM,13 nM,28 nM
197 nM,39.8 mL/min/kg,,"O=C1NN=C(c2ccc(-c3ccc(F)cc3)c(C(F)(F)F)c2)CO1 [Example 3, 5-[4′-Fluoro-2-(trifluoromethyl)biphenyl-4-yl]-3,6-dihydro-2H-1,3,4-oxadiazin-2-one]",,,29 nM

# Source: US11427553B2, “Dihydrooxadiazinones” (Bayer Aktiengesellschaft, priority 2017, dated 2022)
